“And” between values parts separate entries of the source, which are not always exact repeats. Identical values can stand only once. “Also recorded” adds a separate entry of the source.
How the values were obtained:
[1] = molecular target: T1, FTO protein (Homo sapiens, UniProt Q9C0B1); assay: FTO enzyme inhibition assay (demethylation of m6A RNA probe); assay type: biochemical; set-up: 6His (C); purchased ProteoGenics SAS (ProteoGenix), Schiltigheim, France; host or cells: HEK293 (transient transfection); conditions: for Inhibitory effect on FTO: up to the 100 µM concentration; for IC50: 10 nM FTO, 200 ng m6A RNA probe, 2 h at RT
T1 sequence (Q9C0B1 whole entry): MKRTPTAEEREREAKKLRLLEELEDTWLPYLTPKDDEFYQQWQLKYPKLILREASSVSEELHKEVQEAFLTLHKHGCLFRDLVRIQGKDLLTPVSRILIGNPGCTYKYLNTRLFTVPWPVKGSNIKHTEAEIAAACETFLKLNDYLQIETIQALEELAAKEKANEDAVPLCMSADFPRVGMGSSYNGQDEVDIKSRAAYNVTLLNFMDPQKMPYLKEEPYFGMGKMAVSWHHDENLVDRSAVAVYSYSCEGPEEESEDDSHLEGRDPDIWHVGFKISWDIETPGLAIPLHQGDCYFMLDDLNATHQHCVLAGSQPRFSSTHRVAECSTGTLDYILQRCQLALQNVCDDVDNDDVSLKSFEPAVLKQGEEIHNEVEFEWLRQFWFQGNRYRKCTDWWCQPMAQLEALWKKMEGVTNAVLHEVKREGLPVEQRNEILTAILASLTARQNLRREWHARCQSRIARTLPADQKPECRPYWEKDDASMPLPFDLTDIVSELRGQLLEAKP
Protocol: The enzymatic assay was modified from Huang et al. The experiments were conducted in reaction buffer (50 mM Tris-HCl, pH 7.5, 300 μM 2OG, 280 μM (NH4)2Fe(SO4)2, and 2 mM L-ascorbic acid). The reaction mixture contained 200 ng methylated N^6-adenine RNA probe (SEQ ID NO: 1) (5′-CUUGUCAm6[…]-3′, Dharmacon, Lafayette, CO, USA) and 10 nM FTO protein and different concentrations of ligands (1 nM to 100 µM). Reactions were incubated on 96-well plate for 2 h at RT. After that, the amount of m^6A that was measured using EpiQuik m^6A RNA methylation Quantification Colorimetric Kit (Epigentek, Farmingdale, NY, USA).
The inhibitory effect IE of compounds on RNA probe demethylation by FTO was calculated as the enhancement of the m^6A amount as compared to the negative control (DMSO) relative to the difference between m^6A amounts of the positive control (max inhibition) and the negative control (Equation (2)) (2) IE=Cinh− CDMSO/Cinh(max)− CDMSO where Cinh, Cinh(max), and CDMSO are the amounts of m^6A at a given concentration of the inhibitor, maximum inhibition and in the case of DMSO, respectively.
Enzymatic assay curve-fitting analysis and determination of the IC50 and EC50 values were performed using AAT Bioquest, Inc. Quest Graph™ IC50 Calculator (v.1, Sunnyvale, CA, USA). MST data analysis was performed using MO.Affinity Analysis v2.3 software (NanoTemper Technologies GmbH, Munich, Germany). Statistical significance in cell survival experiments was assessed using one-way ANOVA and unpaired t-test with the GraphPad Prism8 software (GraphPad Software, Inc., 2365 Northside Dr., Suite 560, San Diego, CA, USA). Results were considered statistically significant at p values lower than 0.05.

[2] = test system: mouse midbrain dopamine neurons; assay: Survival of growth factor-deprived primary midbrain dopamine neurons; assay type: cell-based; conditions: for Neuroprotective effect at 10 nM / Neuroprotective effect at 100 nM / Neuroprotective effect at 1000 nM: growth factor deprivation; for Protection of embryonic midbrain dopamine neurons from growth factor deprivation-induced cell death: E13 mouse midbrain cultures, TH-positive cells, 10–1000 nM, five days; for Number of TH-positive neurons: three tested concentrations, growth factor deprivation model
Protocol: We, therefore, assessed the neuroprotective ability of different concentrations of FTO or ALKBH5 inhibitors in cultured growth factor deprived dopamine neurons. Human recombinant GDNF (100 ng/mL) or a condition without any neurotrophic compound added were used as positive and negative controls, respectively. Growth factor deprivation caused cell death by 50–70%. Representative images of mouse E13 wild-type midbrain cultures treated with vehicle, FTO or ALKBH5 inhibitors, and GDNF (positive control) probed with anti-TH antibody are shown on Figure 7B.
The midbrain floors were dissected from the ventral mesencephalic of 13 days old NMRI strain mouse embryos following the published procedure. The tissues were incubated with 0.5% trypsin (103139, MP Biomedicals, Inc, Thermo Fisher Scientific, Waltham, MA, USA) in HBSS (Ca^2+/Mg^2+-free) (14170112, Invitrogen, Thermo Fisher Scientific, Carlsbad, CA, USA) for 20 min at 37 °C, then mechanically dissociated. Cells were plated onto the 96-well plates coated with poly-L-ornithine (Sigma-Aldrich, Merck KGaA, St. Louis, MO, USA). Equal volumes of cell suspension were plated onto the center of the dish. The dopamine neurons were cultured for five DIV in presence of cell culture media Dulbecco’s MEM/Nut mix F12 (Invitrogen/Gibco; 21331–020), 100 × N2 serum supplement (Invitrogen/ Gibco; 17502–048), 33 mM D-Glucose (Sigma; G-8769), 0.5 mM L-Glutamine (Invitrogen/ Gibco; 25030–032), and 100 μg/mL Primocin (Invivo Gen, San Diego, CA, USA)]. On 6 DIV, to deprive growth factors, the cultures were washed three times with normal medium and the FTO and ALKBH5 inhibitors and glial cell line-derived neurotrophic factor (GDNF) were applied. The cells were grown for five days with different concentrations of FTO and ALKBH5 inhibitors. Human recombinant GDNF (100 ng/mL) (Icosagen AS, Tartu, Estonia) or a condition without any neurotrophic compound added were used as positive and negative controls, respectively.
After growing five days, the neuronal cultures were fixed and stained with anti-Tyrosine Hydroxylase antibody (MAB318, Millipore Bioscience Research Reagents, Temecula, CA, USA). Images were acquired by CellInsight (Thermo Fisher Scientific) high-content imaging equipment. Immunopositive neurons were counted by CellProfiler software and the data was analyzed by CellProfiler analyst software. The results are expressed as % of cell survival compared to GDNF-maintained neurons.

[3] = test system: dopamine neurons; assay: 6-OHDA induced death of dopamine neurons; assay type: cell-based; conditions: data not shown
[4] = test system: murine endothelial cells bEnd3 co-cultured with murine HIFko astrocytes; assay: Artificial in vitro blood-brain barrier model; assay type: in vitro ADME; conditions: 10 µM in insert, 1 h; concentration in well ('brain') / concentration in insert
Description: The effects of FTO inhibitors were studied in the artificial in vitro BBB model, where murine endothelial cells bEnd3 were co-cultured with murine HIFko astrocytes on hanging cell culture inserts. The BBB penetration % defined as the ratio of the concentration of the compound in the well (‘brain’) side and the concentration in the insert, were 31.7 ± 3.3% for compound 2 and 30.8 ± 1.9% for compound 3.
Artificial in vitro blood–brain barrier (BBB) was established as described by Le Joncour et al. Murine endothelial cells bEnd3 (ATCC CRL-2299) were co-cultured with murine hypoxia-inducible factor knock out (HIFko) astrocytes (passage 12, received from Le Joncour) on hanging cell culture inserts (BD Falcon 353091, Franklin Lakes, NJ, USA) for five days in fetal bovine serum (FBS)-free conditions. 2.5 mL of FTO inhibitors (final concentration of 10 µM) were added into the insert (representing the ‘blood’ side) of the BBB cell. After 1 h incubation, 1 mL of the sample was taken from the insert and from the well (‘brain’ side), and the concentration of the compounds was measured by high-performance liquid chromatography (HPLC). […] The concentration of the studied compounds is each side of the BBB cell were analyzed using LC-MS system consisting of Agilent 1290 UHPLC (Agilent, Inc., Santa Clara, CA, USA) and Agilent 6460 Triple Quadrupole MS (Agilent, Inc., Santa Clara, CA 95051, USA). […]

[5] = molecular target: T1, FTO protein; assay: Protein binding by microscale thermophoresis (MST); set-up: purchased ProteoGenics SAS (ProteoGenix), Schiltigheim, France; host or cells: HEK293 (transient transfection); conditions: labelled FTO 20 nM, ligand 0–10 µM, 25 °C, pH 7.4
Protocol: The microscale thermophoresis (MST) experiments were performed using Monolith NT.115 instrument (NanoTemper Technologies GmbH, Germany). Recombinant human FTO protein was labeled through His-tag using Monolith His-Tag Labeling Kit RED-tris-NTA (NanoTemper Technologies GmbH; MO-L008). The labelled FTO protein (target) was used at 20 nM in all the experiments and 10 µM starting concentrations of ligands FTO inhibitors 2 or 3 were used in both series of experiments.
The measurements were done in a buffer containing 10 mM Na-phosphate buffer, pH 7.4, 1 mM MgCl2, 3 mM KCl, 150 mM NaCl, 0.05% Tween-20 in premium coated capillaries (NanoTemper Technologies GmbH; MO-K025) using red LED source, power set at 100% and medium MST power at 25 °C. Each data point represents mean fraction bound values from n = 3 independent experiments per binding pair ±S.D, Kd values ± error estimations are indicated. Data analysis was performed using MO.Affinity Analysis v2.3 software.

[6] = test system: ALKBH5; set-up: method as in earlier work; conditions: read-out: IC50 against ALKBH5; cited from earlier work

Compound	Inhibitory effect on FTO [1]	Neuroprotective effect at 10 nM [2]	Neuroprotective effect at 100 nM [2]	Neuroprotective effect at 1000 nM [2]	Protection of embryonic midbrain dopamine neurons from growth factor deprivation-induced cell death [2]	further results
8-hydroxyquinoline-5-carboxylic acid [Compound 5]	No significant inhibitory effect					
Nc1c(C(=O)O)cnc2ccccc12 [Compound 1, 4-aminoquinoline-3-carboxylic acid]	No significant inhibitory effect					
Nc1c(C(=O)O)cnc2c(Cl)cccc12 [Compound 2, 4-amino-8-chloroquinoline-3-carboxylic acid]		neuroprotective effect can be seen	statistically significant outcome	statistically significant outcome	dose-dependently protected; also recorded: comparable to that of GDNF	Rescue of dopamine neurons from 6-OHDA induced neuronal cell death [3]: recued dopamine neurons; BBB penetration % [4]: 31.7% and 31.7 ± 3.3%; Kd [5]: 185 nM; IC50 [1]: 1.46 µM
Nc1cccc2cc(C(=O)O)cnc12 [Compound 3, 8-aminoquinoline-3-carboxylic acid]		neuroprotective effect can be seen	statistically significant outcome	statistically significant outcome	dose-dependently protected; also recorded: comparable to that of GDNF	Rescue of dopamine neurons from 6-OHDA induced neuronal cell death [3]: recued dopamine neurons; BBB penetration % [4]: 30.8% and 30.8 ± 1.9%; Kd [5]: 337 nM; IC50 [1]: 28.9 µM
Cc1cccc(C(=O)NNC(=O)/C=C/C(=O)O)c1 [Compound 4, (2E)-4-[(3-methylphenyl)formohydrazido]-4-oxobut-2-enoic acid]	No significant inhibitory effect					
Cc1cccc(C(=O)NNC(=O)c2cccc(C)c2)c1 [Compound 6, 3-methyl-N’-(3-methylbenzoyl)benzohydrazide]	No significant inhibitory effect					
O=C(O)CSC(O)C(=O)c1ccccc1 (stereo not drawn) [Compound 7, 2-[(1-hydroxy-2-oxo-2-phenylethyl)sulfanyl]acetic acid]					only trend	Number of TH-positive neurons [2]: increased; IC50 [6]: 840 nM
O=C1CC(NCc2ccco2)C(=O)NN1 (stereo not drawn) [Compound 8, 4-{[(furan-2-yl)methyl]amino}-1,2-diazinane-3,6-dione]		rescued	only a trend	rescued		Number of TH-positive neurons [2]: increased
